Test results as given in US6541450B1, “Parathyroid hormone analogues for the treatment of osteoporosis” (National Research Council of Canada, priority 1994, dated 2003).
Where a SMILES comes first, the peptide text is derived from it. Bridges are numbered along the chain shown (N, C = ends). [ ]: non-standard residue; d: D form. Nle = CCCC[C@H](N)C(=O)O; Orn = NCCC[C@H](N)C(=O)O

Molecular target: T1, adenylyl cyclase, ROS 17/2 cells (Rattus norvegicus, UniProt P25961)
T1 sequence (P25961 27-591): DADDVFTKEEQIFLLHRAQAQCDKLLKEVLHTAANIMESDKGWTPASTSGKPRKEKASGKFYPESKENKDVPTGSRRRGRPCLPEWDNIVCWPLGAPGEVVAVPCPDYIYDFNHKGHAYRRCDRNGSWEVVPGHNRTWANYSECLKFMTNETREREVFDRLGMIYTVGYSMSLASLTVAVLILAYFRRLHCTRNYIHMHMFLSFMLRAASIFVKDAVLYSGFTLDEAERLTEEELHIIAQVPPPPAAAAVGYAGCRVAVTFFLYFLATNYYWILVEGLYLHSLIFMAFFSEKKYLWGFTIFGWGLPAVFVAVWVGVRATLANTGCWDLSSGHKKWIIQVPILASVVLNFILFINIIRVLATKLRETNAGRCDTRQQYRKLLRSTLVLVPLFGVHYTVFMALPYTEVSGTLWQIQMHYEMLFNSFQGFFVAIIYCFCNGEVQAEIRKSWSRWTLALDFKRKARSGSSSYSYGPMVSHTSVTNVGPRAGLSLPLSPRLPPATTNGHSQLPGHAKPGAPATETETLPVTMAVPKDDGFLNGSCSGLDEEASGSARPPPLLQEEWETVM
Assay: Adenylyl cyclase stimulation, [3H]-cyclic AMP production in ROS 17/2 cells
Assay type: cell-based
Conditions: ROS 17/2 cells; concentration for half-maximal increase in AC activity; read-out: Adenylyl Cyclase (EC50)

| SMILES | EC50 |
| --- | --- |
| CC[C@H](C)[C@H](NC(=O)[C@H](CCC(=O)O)NC(=O)[C@H](CO)NC(=O)[C@@H](NC(=O)[C@@H](N)CO)C(C)C)C(=O)N[C@@H](CCC(N)=O)C(=O)N[C@@H](CC(C)C)C(=O)N[C@@H](CCSC)C(=O)N[C@@H](Cc1c[nH]cn1)C(=O)N[C@@H](CC(N)=O)C(=O)N[C@@H](CC(C)C)C(=O)NCC(=O)N[C@@H](CCCCN)C(=O)N[C@@H](Cc1c[nH]cn1)C(=O)N[C@@H](CC(C)C)C(=O)N[C@@H](CC(N)=O)C(=O)N[C@@H](CO)C(=O)N[C@@H](CCSC)C(=O)N[C@@H](CCC(=O)O)C(=O)N[C@@H](CCCNC(=N)N)C(=O)N[C@H](C(=O)N[C@@H](CCC(=O)O)C(=O)N[C@@H](Cc1c[nH]c2ccccc12)C(=O)N[C@@H](CC(C)C)C(=O)N[C@@H](CCCNC(=N)N)C(=O)N[C@H]1CSSC[C@@H](C(=O)N[C@H](C(N)=O)C(C)C)NC(=O)[C@H](CCC(N)=O)NC(=O)[C@H](CC(C)C)NC(=O)[C@H](CC(C)C)NC1=O)C(C)C [[Cys^26, Cys^30, Leu^27]cyclo(Cys^26—Cys^30)—hPTH—(1-31)-NH2] (H-SVSEIQLMHNLGKHLNSMERVEWLRCLLQCV-NH2; disulfide 26-30) | 24 nM |
| CC[C@H](C)[C@H](NC(=O)[C@H](CCC(=O)O)NC(=O)[C@H](CO)NC(=O)[C@@H](NC(=O)[C@@H](N)CO)C(C)C)C(=O)N[C@@H](CCC(N)=O)C(=O)N[C@@H](CC(C)C)C(=O)N[C@@H](CCSC)C(=O)N[C@@H](Cc1c[nH]cn1)C(=O)N[C@@H](CC(N)=O)C(=O)N[C@@H](CC(C)C)C(=O)NCC(=O)N[C@@H](CCCCN)C(=O)N[C@@H](Cc1c[nH]cn1)C(=O)N[C@@H](CC(C)C)C(=O)N[C@@H](CC(N)=O)C(=O)N[C@@H](CO)C(=O)N[C@@H](CCSC)C(=O)N[C@@H](CCC(=O)O)C(=O)N[C@@H](CCCNC(=N)N)C(=O)N[C@H](C(=O)N[C@H]1CC(=O)NCCC[C@@H](C(=O)N[C@@H](CC(C)C)C(=O)N[C@@H](CC(C)C)C(=O)N[C@@H](CCC(N)=O)C(=O)N[C@@H](CC(=O)O)C(=O)N[C@H](C(N)=O)C(C)C)NC(=O)[C@H](CCCNC(=N)N)NC(=O)[C@H](CC(C)C)NC(=O)[C@H](Cc2c[nH]c3ccccc23)NC1=O)C(C)C [[Leu^27]cyclo(Asp^22—Orn^26)—hPTH—(1-31)-NH2] (H-SVSEIQLMHNLGKHLNSMERVDWLR[Orn]LLQDV-NH2; lactam 22-26; N-terminus assumed) | > 200 nM |

The next compounds have a lower EC50 than those just listed; values first:

| EC50 | SMILES |
| --- | --- |
| 16 nM | CC[C@H](C)[C@H](NC(=O)[C@H](CCC(=O)O)NC(=O)[C@H](CO)NC(=O)[C@@H](NC(=O)[C@@H](N)CO)C(C)C)C(=O)N[C@@H](CCC(N)=O)C(=O)N[C@@H](CC(C)C)C(=O)N[C@@H](CCSC)C(=O)N[C@@H](Cc1c[nH]cn1)C(=O)N[C@@H](CC(N)=O)C(=O)N[C@@H](CC(C)C)C(=O)NCC(=O)N[C@@H](CCCCN)C(=O)N[C@@H](Cc1c[nH]cn1)C(=O)N[C@@H](CC(C)C)C(=O)N[C@@H](CC(N)=O)C(=O)N[C@@H](CO)C(=O)N[C@@H](CCSC)C(=O)N[C@@H](CCC(=O)O)C(=O)N[C@@H](CCCNC(=N)N)C(=O)N[C@H](C(=O)N[C@H]1CSSC[C@@H](C(=O)N[C@@H](CC(C)C)C(=O)N[C@@H](CC(C)C)C(=O)N[C@@H](CCC(N)=O)C(=O)N[C@@H](CC(=O)O)C(=O)N[C@H](C(N)=O)C(C)C)NC(=O)[C@H](CCCNC(=N)N)NC(=O)[C@H](CC(C)C)NC(=O)[C@H](Cc2c[nH]c3ccccc23)NC1=O)C(C)C [[Cys^22, Cys^26, Leu^27]cyclo(Cys^22—Cys^26)—hPTH—(1-31)-NH2] (H-SVSEIQLMHNLGKHLNSMERVCWLRCLLQDV-NH2; disulfide 22-26) |
| 6 nM | CC[C@H](C)[C@H](NC(=O)[C@H](CCC(=O)O)NC(=O)[C@H](CO)NC(=O)[C@@H](NC(=O)[C@@H](N)CO)C(C)C)C(=O)N[C@@H](CCC(N)=O)C(=O)N[C@@H](CC(C)C)C(=O)N[C@@H](CCSC)C(=O)N[C@@H](Cc1c[nH]cn1)C(=O)N[C@@H](CC(N)=O)C(=O)N[C@@H](CC(C)C)C(=O)NCC(=O)N[C@@H](CCCCN)C(=O)N[C@@H](Cc1c[nH]cn1)C(=O)N[C@@H](CC(C)C)C(=O)N[C@@H](CC(N)=O)C(=O)N[C@@H](CO)C(=O)N[C@@H](CCSC)C(=O)N[C@@H](CCC(=O)O)C(=O)N[C@@H](CCCNC(=N)N)C(=O)N[C@H](C(=O)N[C@H]1CCC(=O)NCCCC[C@@H](C(=O)N[C@@H](CC(C)C)C(=O)N[C@@H](CC(C)C)C(=O)N[C@@H](CCC(N)=O)C(=O)N[C@@H](CC(=O)O)C(=O)N[C@H](C(=O)N[C@@H](Cc2c[nH]cn2)C(=O)N[C@@H](CC(N)=O)C(=O)N[C@@H](Cc2ccccc2)C(=O)O)C(C)C)NC(=O)[C@H](CCCNC(=N)N)NC(=O)[C@H](CC(C)C)NC(=O)[C@H](Cc2c[nH]c3ccccc23)NC1=O)C(C)C [[Leu^27]cyclo(Glu^22—Lys^26)—hPTH—(1-34)-OH] (H-SVSEIQLMHNLGKHLNSMERVEWLRKLLQDVHNF-OH; lactam 22-26; N-terminus assumed) |
| 6 nM | CCCC[C@H](NC(=O)[C@H](CO)NC(=O)[C@H](CC(N)=O)NC(=O)[C@H](CC(C)C)NC(=O)[C@H](Cc1c[nH]cn1)NC(=O)[C@H](CCCCN)NC(=O)CNC(=O)[C@H](CC(C)C)NC(=O)[C@H](CC(N)=O)NC(=O)[C@H](Cc1c[nH]cn1)NC(=O)[C@H](CCCC)NC(=O)[C@H](CC(C)C)NC(=O)[C@H](CCC(N)=O)NC(=O)[C@@H](NC(=O)[C@H](CCC(=O)O)NC(=O)[C@H](CO)NC(=O)[C@@H](NC(=O)[C@@H](N)CO)C(C)C)[C@@H](C)CC)C(=O)N[C@@H](CCC(=O)O)C(=O)N[C@@H](CCCNC(=N)N)C(=O)N[C@H](C(=O)N[C@H]1CCC(=O)NCCCC[C@@H](C(=O)N[C@@H](CC(C)C)C(=O)N[C@@H](CC(C)C)C(=O)N[C@@H](CCC(N)=O)C(=O)N[C@@H](CC(=O)O)C(=O)N[C@H](C(N)=O)C(C)C)NC(=O)[C@H](CCCNC(=N)N)NC(=O)[C@H](CC(C)C)NC(=O)[C@H](Cc2c[nH]c3ccccc23)NC1=O)C(C)C [[Nle^8.18, Leu^27]cyclo(Glu^22—Lys^26)—hPTH—(1-31)-NH2] (H-SVSEIQL[Nle]HNLGKHLNS[Nle]ERVEWLRKLLQDV-NH2; lactam 22-26; N-terminus assumed) |
| 9 nM | CCCC[C@H](NC(=O)[C@@H]1CCCCNC(=O)CC[C@H](NC(=O)[C@@H](NC(=O)[C@H](CCCNC(=N)N)NC(=O)[C@H](CCC(=O)O)NC(=O)[C@H](CCSC)NC(=O)[C@H](CO)NC(=O)[C@H](CC(N)=O)NC(=O)[C@H](CC(C)C)NC(=O)[C@H](Cc2c[nH]cn2)NC(=O)[C@H](CCCCN)NC(=O)CNC(=O)[C@H](CC(C)C)NC(=O)[C@H](CC(N)=O)NC(=O)[C@H](Cc2c[nH]cn2)NC(=O)[C@H](CCSC)NC(=O)[C@H](CC(C)C)NC(=O)[C@H](CCC(N)=O)NC(=O)[C@@H](NC(=O)[C@H](CCC(=O)O)NC(=O)[C@H](CO)NC(=O)[C@@H](NC(=O)[C@@H](N)CO)C(C)C)[C@@H](C)CC)C(C)C)C(=O)N[C@@H](Cc2c[nH]c3ccccc23)C(=O)N[C@@H](CC(C)C)C(=O)N[C@@H](CCCNC(=N)N)C(=O)N1)C(=O)N[C@@H](CC(C)C)C(=O)N[C@@H](CCC(N)=O)C(=O)N[C@@H](CC(=O)O)C(=O)N[C@H](C(N)=O)C(C)C [[Nle^27]cyclo(Glu^22—Lys^26)—hPTH—(1-31)-NH2] (H-SVSEIQLMHNLGKHLNSMERVEWLRK[Nle]LQDV-NH2; lactam 22-26) |
